Structures are written as SMILES. Several values for one entry are separate records, joined by “and”; a condition that tells them apart may be missing. Equal values may be shown once.

This test concerns the target T1, Oxaloacetate decarboxylase (Pseudomonas aeruginosa (strain ATCC 15692 / DSM 22644 / CIP 104116 / JCM 14847 / LMG 12228 / 1C / PRS 101 / PAO1), UniProt Q9HUU1).
T1 sequence (Q9HUU1 whole entry): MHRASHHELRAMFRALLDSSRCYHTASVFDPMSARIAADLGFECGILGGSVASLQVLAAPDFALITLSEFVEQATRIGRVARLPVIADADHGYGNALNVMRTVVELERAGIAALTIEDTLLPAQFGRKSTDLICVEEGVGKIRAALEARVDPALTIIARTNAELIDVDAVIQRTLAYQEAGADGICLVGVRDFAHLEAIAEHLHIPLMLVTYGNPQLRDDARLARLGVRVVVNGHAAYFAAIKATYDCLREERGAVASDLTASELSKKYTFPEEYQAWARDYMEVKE
The test is described as follows: Inhibition Assay. The source says:
Competitive inhibition constant determined for PA4872 catalyzed oxaloacetate decarboxylation.
One may read the Ki as the equilibrium dissociation constant of an inhibitor or competing ligand from its target. A lower Ki goes with tighter binding. `O=C(O)C(O)(O)C(F)(F)C(=O)O` [3,3-Difluoroxaloacetate] registered a Ki of 450 µM.

`O=C(O)C(=O)O` showed a Ki of 43 µM.

On to `CCCC(=O)C(=O)O` [alpha-ketovalerate], for which the Ki is 6700 µM and 3200 µM.

For the compound `CC(=O)CC(=O)C(=O)O` [Acetopyruvate], the Ki is 1090 µM and 560 µM.

In the case of `O=C(O)C(=O)CP(=O)(O)O` [Phosphonopyruvate], affinity was put at a Ki of 3000 µM.

Consider `CC(=O)C(=O)O` [Pyruvate], for which the inhibition constant Ki amounted to 7200 µM.

The values are drawn from BindingDB's records for doi:10.1021/bi701954p (University of Maryland Biotechnology Institute, 2008).
